# Experimental data published in patent US20120022048A1, “Anti-proliferative substituted pyrazolo[3,4-d]pyrimidines derivatives (SPP) to inhibit immune activation, virus replication and tumor growth” (priority 2010, published 2012).
# “Also recorded” adds a separate entry of the source.
# Experiments:
# [1] = tested on: primary human CD4 T-lymphocytes; assay: Apoptosis in primary CD4 T cells (Annexin V and 7-AAD staining); assay type: cell-based; conditions: for apoptotic effect (in words): SPPs 10 μM, compared with HU 100 μM, HU+ddI or untreated control
# How it was run: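 Resting primary human CD4 T cells from healthy donors were PHA-activated (5 μg/ml) at day 5, with IL-2 (20 U/ml) added at day 7. Compounds were tested at 10 μM. At day 10, Annexin V/7-AAD staining gave percentage of total apoptotic events.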
# HIV-1 NL 4.3 [2] = assay: HIV-1 replication in quiescent CD4 T cells (p24 Ag ELISA); assay type: cell-based; conditions: for anti-HIV activity in quiescent cells (in words): SPPs 10 μM, compared with HU 100 μM, HU+ddI or untreated control
# How it was run: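 Resting human CD4 T cells from healthy donors were infected, then stimulated with PHA 5 μg/ml on day 5 and IL-2 20 U/ml on day 7. Compounds were tested at 10 μM, with HU 100 μM ± ddI 2 μM as comparators. p24 was measured by ELISA on day 10 and expressed as % of untreated control.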
# [3] = tested on: primary human CD4 T-lymphocytes; assay: Cell hyperproliferation in primary T cells (CFSE staining, mitotic index); assay type: cell-based; conditions: for anti-proliferative activity (in words): SPPs 10 μM, compared with HU 100 μM, Imatinib 10 μM, HU+ddI or untreated control
# How it was run: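 Primary human CD4 T cells were activated with PHA (5 μg/ml) on day 5, and IL-2 (20 U/ml) was added on day 7. Compounds were tested at 10 μM and cells harvested on day 10. Proliferation was measured by CFSE dilution as a normalized mitotic index, and apoptosis by Annexin V/7-AAD staining on day 10.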
# [4] = tested on: Human peripheral blood mononuclear cells (PBMC); assay: Cell cycle analysis of anti-CD3/anti-CD28 stimulated PBMC (Ki-67 and 7-AAD flow cytometry); assay type: cell-based; conditions: 24 hours treatment; compared to the not treated control; FIG. 6
# Procedure: A 48 well plate was coated with anti-CD3 antibody by dispensing 100 microliter of a 10 μg/ml antibody solution followed by overnight incubation at 4° C. Human peripheral blood mononuclear cells (PBMC), obtained from healthy, normal donors, were then plated (2×10^6 cells per well in 1 ml) in complete culture medium supplemented with anti-CD28 antibody (2 μg/ml). Stimulated cells were cultured for 2 days then treated with HU, CsA, and VS1-002 to induce cell cycle arrest.
# HIV-1 NL 4.3 [5] = assay: HIV-1 replication in activated T cells (PBMC, p24 Ag ELISA); assay type: cell-based; conditions: for anti-HIV activity in activated T cells (in words): SPPs 10 μM, compared with HU 100 μM, HU+ddI or untreated control
# How it was run: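 PBMC from healthy donors, stimulated two days with PHA 5 μg/ml, were infected with HIV-1 NL 4.3 and given IL-2 (20 U/ml) and compound at 10^5 cells per well. After 7 days at 37° C, supernatant p24 Ag was measured by ELISA against an untreated control.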
# [6] = tested on: Human peripheral blood mononuclear cells (PBMC); conditions: human, 7 days, 10 μM
Compound,apoptotic effect (in words) [1],anti-HIV activity in quiescent cells (in words) (HIV-1 NL 4.3 [2]),"inhibition at 100 µM ([3]; Homo sapiens, T-lymphocyte, read-out: decrease/inhibition of cell proliferation compared to not treated control) [%]",anti-proliferative activity (in words) [3],effect on cell cycle phases (in words) [4],anti-HIV activity in activated T cells (in words) (HIV-1 NL 4.3 [5]),"less proapoptotic effect than HU 100 μM+ddI 2 μM combination ([1]; 10 μM, spider graph FIG. 3)","inhibition at 10 µM (HIV-1 NL 4.3 [2]; Human immunodeficiency virus 1, CD4+ T, quiescent cells, 10 μM, read-out: reduction of HIV-1 p24 production / inhibition of HIV replication compared to untreated control) [%]","Antiviral activity in quiescent cells (HIV-1 NL 4.3 [2]; class symbol, Table 6)",% viability [6] [%],less toxicity than HU 100 μM+ddI 2 μM combination [6] [%],"Anti-proliferative capacity ([3]; class symbol, Table 6)","inhibition at 10 µM (HIV-1 NL 4.3 [5]; Human immunodeficiency virus 1, T-cell, activated T cells, 10 μM, read-out: inhibition of p24 production / HIV replication compared to untreated control) [%]","Antiviral activity in activated cells (HIV-1 NL 4.3 [5]; class symbol, Table 6)"
"NC(=O)NO [HU, hydroxyurea, reference compound]",no significant increases; also recorded: did not substantially affect the percentage of total apoptotic events,potent antiviral activity,74,did substantially decrease cell proliferation,decreased the percentage of cells in S phase with an increase in the percentage of cells in G1 phase,not effective in inhibiting HIV replication,,,,,,,,
"CCCCNc1nc(SCC)nc2c1cnn2CC(Cl)c1ccccc1 (stereo not shown) [VS1-002, N-butyl-1-(2-chloro-2-phenylethyl)-6-(ethylthio)-1H-pyrazolo[3,4-d]pyrimidin-4-amine]",did not affect the percentage of apoptotic events; also recorded: not proapoptotic,antiviral activity in both quiescent and in hyperactivated cells,,as effective as 100 μM HU; also recorded: comparable to that of 100 μM HU and superior to that of Imatinib,decreased the percentage of cells in S phase with an increase in the percentage of cells in G1 phase,inhibited HIV replication in activated T cells,more than 20%,90,"+++ (excellent (+++, greater than 70% activity))",108.9 ± 8.7,20,"+++ (excellent (+++, greater than 70% activity))",86,"+++ (excellent (+++, greater than 70% activity))"
